Experimental data published in publication PMC6125496 (Antimicrobial Agents and Chemotherapy, 2018).
≈ marks a conversion by molar mass, not a printed value. Like-named read-outs stand apart in the source and are kept apart here.

Key:
[1] = system: human renal proximal tubular epithelial cells (HRPTEpiC); test: Multiplexed HRPTEpiC cytotoxicity assay (cell viability, KIM-1, HSP27)
Experimental: The multiplexed cytotoxicity assay on human renal proximal tubule epithelial cells (HRPTEpiC) was conducted by Eurofins Panlabs (Eurofins Panlabs, Inc., St. Charles, MO) by using an image-based high content analysis (HCA) technique where cells were fixed and stained with nuclear dye to visualize nuclei and fluorescently labeled antibodies to detect drug-induced cellular injury and cellular stress arising from oxidative and chemical stress. Cells were seeded into 384-well plates and grown in RPMI 1640, 10% fetal bovine serum (FBS), 2 mM L-alanyl-L-glutamine, and 1 mM sodium pyruvate in a humidified atmosphere of 5% CO2 at 37°C. […] Compounds were serially diluted 3.16-fold and assayed over 10 concentrations in a final assay concentration of 0.5% dimethyl sulfoxide (DMSO) from 100 μM to 3.7 nM. At the same time, a time zero untreated cell plate was generated. After a 48-h incubation period, cells were fixed and stained with fluorescently labeled antibodies and nuclear dyed to allow visualization of nuclei, injured cells, and stressed cells. Injured cells were detected using a KIM-1 (kidney injury molecule 1) antibody. Stressed cells were detected using an anti-HSP27 (heat shock protein 27) antibody. Cell proliferation was measured by the signal intensity of the incorporated nuclear dye. The cell proliferation assay output was referred to as the relative cell count. To determine the cell proliferation endpoint, the cell proliferation data output was transformed to percentage of control (POC) using the following formula: POC = relative cell count in compound wells/relative cell count in vehicle wells × 100. The signal intensity of the incorporated cellular stress and injury measurements were normalized with the relative cell count from each well. Automated fluorescence microscopy was carried out using a Molecular Devices ImageXpress micro-imager, and images were collected with a 4× objective.

[2] = system: Staphylococcus aureus ATCC 29213; test: microbe, parasite or virus in culture; details: Staphylococcus aureus, ATCC29213
Excerpt: (§1) Reference strains are from the German Collection of Microorganisms and Cell Cultures (DSMZ), the American Type Culture Collection (ATCC), the National Collection of Type Cultures (NCTC), and the Medical and Molecular Microbiology, Faculty of Science and Medicine, University of Fribourg, Switzerland.

[3] = system: Serratia marcescens DSM 17174; test: microbe, parasite or virus in culture; details: Serratia marcescens, DSM17174
Excerpt: as §1

Escherichia coli (101) = test: microbe, parasite or virus in culture; details: Escherichia coli
Excerpt: as §1

[4] = system: Citrobacter kozeri DSM 4595; test: microbe, parasite or virus in culture; details: Citrobacter, DSM4595
Excerpt: as §1

[5] = system: Klebsiella pneumoniae (56); test: microbe, parasite or virus in culture; details: Klebsiella pneumoniae
Excerpt: as §1

[6] = system: Pseudomonas aeruginosa DSM 1117; test: microbe, parasite or virus in culture; details: Pseudomonas aeruginosa, DSM1117
Excerpt: as §1

[7] = system: Enterobacter cloacae (13); test: microbe, parasite or virus in culture; details: Enterobacter cloacae
Excerpt: as §1

[8] = system: Ciprofloxacin-resistant K. pneumoniae (27); test: microbe, parasite or virus in culture; details: Klebsiella pneumoniae
Excerpt: as §1

[9] = system: Citrobacter freundii DSM 30039; test: microbe, parasite or virus in culture; details: Citrobacter freundii, DSM30039
Excerpt: as §1

[10] = system: Klebsiella pneumoniae NCTC 13443; test: microbe, parasite or virus in culture; details: Klebsiella pneumoniae, NCTC13443
Excerpt: as §1

[11] = system: Gentamicin-resistant K. pneumoniae (16); test: microbe, parasite or virus in culture; details: Klebsiella pneumoniae
Excerpt: as §1

[12] = system: Klebsiella pneumoniae ATCC BAA-1905; test: microbe, parasite or virus in culture; details: Klebsiella pneumoniae, ATCCBAA1905
Excerpt: as §1

[13] = system: Escherichia coli ATCC 25922; test: microbe, parasite or virus in culture; details: Escherichia coli, ATCC25922
Excerpt: as §1

[14] = system: Ciprofloxacin-resistant E. coli (19); test: microbe, parasite or virus in culture; details: Escherichia coli
Excerpt: as §1

[15] = system: Citrobacter freundii (16); test: microbe, parasite or virus in culture; details: Citrobacter freundii
Excerpt: as §1

[16] = system: Staphylococcus epidermidis ATCC 12228; test: microbe, parasite or virus in culture; details: Staphylococcus epidermidis, ATCC12228
Excerpt: as §1

[17] = system: Escherichia coli BAA-2469; test: microbe, parasite or virus in culture; details: NDM-1
Excerpt: as §1

[18] = system: Enterobacter cloacae DSM 14563; test: microbe, parasite or virus in culture; details: Enterobacter cloacae, DSM14563
Excerpt: as §1

[19] = system: Stenotrophomonas maltophilia ATCC 13637; test: microbe, parasite or virus in culture; details: Stenotrophomonas maltophilia, ATCC13637
Excerpt: as §1

[20] = system: Acinetobacter baumannii ATCC 19606; test: microbe, parasite or virus in culture; details: Acinetobacter baumannii, ATCC19606
Excerpt: as §1

[21] = system: Enterococcus faecium DSM 20477; test: microbe, parasite or virus in culture; details: Enterococcus faecium, DSM20477
Excerpt: as §1

[22] = system: Streptococcus pneumoniae DSM 2134; test: microbe, parasite or virus in culture; details: Streptococcus pneumoniae, DSM2134
Excerpt: as §1

[23] = system: Klebsiella pneumoniae NCTC 13439; test: microbe, parasite or virus in culture; details: Klebsiella pneumoniae, NCTC13439
Excerpt: as §1

[24] = system: Enterococcus faecalis DSM 2570; test: microbe, parasite or virus in culture; details: Enterococcus faecalis, DSM2570
Excerpt: as §1

[25] = system: Enterobacter aerogenes DSM 30053; test: microbe, parasite or virus in culture; details: Klebsiella aerogenes, DSM30053
Excerpt: as §1

[26] = system: Klebsiella pneumoniae ATCC 43816; test: microbe, parasite or virus in culture; details: Klebsiella pneumoniae, ATCC43816
Excerpt: as §1

[27] = system: Klebsiella pneumoniae ATCC BAA-1904; test: microbe, parasite or virus in culture; details: Klebsiella pneumoniae, ATCCBAA1904
Excerpt: as §1

[28] = system: Escherichia coli BAA-2471; test: microbe, parasite or virus in culture; details: Escherichia coli, BAA2471
Excerpt: as §1

[29] = system: Klebsiella pneumoniae NCTC 13442; test: microbe, parasite or virus in culture; details: Klebsiella pneumoniae, NCTC13442
Excerpt: as §1

[30] = system: K. pneumoniae NCTC 13442 (OXA-48); test: Neutropenic mouse lung infection model; assay type: in vivo, Klebsiella pneumoniae; details: 160 mg/kg/day s.c. (40 mg/kg at 2, 8, 14, 20 h), 26 h postchallenge
[31] = system: Klebsiella pneumoniae, colistin resistant (46)
Excerpt: as §1

[32] = system: Escherichia coli, colistin-resistant (25)
Excerpt: as §1

[33] = Escherichia coli, BAA2469, Ambler class B carbapenemase

CNC(C)C1CCC(N)C(OC2C(N)CC(N)C(OC3OCC(C)(O)C(NC)C3O)C2O)O1 (centres unmarked) [GEN, gentamicin]
cytotoxicity to HRPTEpiC (in words) ([1]; concentrations up to 100 μM, 48-h incubation): not cytotoxic
concentration inducing a significant (5-fold) increase of HSP27 level ([1]; tested up to 100 μM): 22.4 µM
concentration inducing a significant (5-fold) increase of KIM-1 level ([1]; tested up to 100 μM): > 100 µM
MIC [2]: 0.5 µg/mL (≈ 1.05 µM)
MIC [3]: 0.5 µg/mL (≈ 1.05 µM)
MIC50 (Escherichia coli (101)): 1 µg/mL (≈ 2.09 µM)
MIC90 (Escherichia coli (101)): 2 µg/mL (≈ 4.19 µM)
MIC [4]: 0.25 µg/mL (≈ 0.523 µM)
MIC50 [5]: 1 µg/mL (≈ 2.09 µM)
MIC90 [5]: > 32 µg/mL
MIC [6]: 1 µg/mL (≈ 2.09 µM)
MIC50 [7]: 32 µg/mL (≈ 67 µM)
MIC90 [7]: > 32 µg/mL
MIC50 [8]: 32 µg/mL (≈ 67 µM)
MIC90 [8]: > 32 µg/mL
MIC [9]: 0.5 µg/mL (≈ 1.05 µM)
MIC [10]: > 64 µg/mL
MIC50 [11]: > 32 µg/mL
MIC90 [11]: > 32 µg/mL
MIC [12]: 32 µg/mL (≈ 67 µM)
MIC [13]: 1 µg/mL (≈ 2.09 µM)
MIC50 [14]: 0.5 µg/mL (≈ 1.05 µM)
MIC90 [14]: > 32 µg/mL
MIC50 [15]: 1 µg/mL (≈ 2.09 µM)
MIC90 [15]: > 32 µg/mL
MIC [16]: ≤ 0.125 µg/mL
MIC [17, 33]: > 64 µg/mL
MIC [18]: 0.5 µg/mL (≈ 1.05 µM)
MIC [19]: 4 µg/mL (≈ 8.38 µM)
MIC [20]: 16 µg/mL (≈ 33.5 µM)
MIC [21]: 8 µg/mL (≈ 16.8 µM)
MIC [22]: 8 µg/mL (≈ 16.8 µM)
MIC [23]: 1 µg/mL (≈ 2.09 µM)
MIC [24]: 16 µg/mL (≈ 33.5 µM)
MIC [25]: 0.25 µg/mL (≈ 0.523 µM)
MIC [26]: 0.25 µg/mL (≈ 0.523 µM)
MIC [27]: 16 µg/mL (≈ 33.5 µM)
MIC [28]: > 64 µg/mL
MIC [29]: 0.25 µg/mL (≈ 0.523 µM)

C[C@@H](O)[C@H]1C(=O)N2C(C(=O)O)=C(SCCN=CN)C[C@H]12 [IPM, imipenem]
MIC [2]: ≤ 0.125 µg/mL
MIC [3]: 2 µg/mL (≈ 6.68 µM)
MIC [4]: 4 µg/mL (≈ 13.4 µM)
MIC [6]: 2 µg/mL (≈ 6.68 µM)
MIC [9]: 1 µg/mL (≈ 3.34 µM)
MIC [10]: > 64 µg/mL
MIC [12]: > 64 µg/mL
MIC [13]: 0.25 µg/mL (≈ 0.835 µM)
MIC [16]: ≤ 0.125 µg/mL
MIC [17, 33]: 32 µg/mL (≈ 107 µM)
MIC [18]: 1 µg/mL (≈ 3.34 µM)
MIC [19]: > 64 µg/mL
MIC [20]: 0.5 µg/mL (≈ 1.67 µM)
MIC [21]: 4 µg/mL (≈ 13.4 µM)
MIC [22]: ≤ 0.125 µg/mL
MIC [23]: 32 µg/mL (≈ 107 µM)
MIC [24]: 1 µg/mL (≈ 3.34 µM)
MIC [25]: 2 µg/mL (≈ 6.68 µM)
MIC [26]: 1 µg/mL (≈ 3.34 µM)
MIC [27]: 32 µg/mL (≈ 107 µM)
MIC [28]: > 64 µg/mL
MIC [29]: 16 µg/mL (≈ 53.4 µM)

CN(C)c1cc(NC(=O)CNC(C)(C)C)c(O)c2c1C[C@H]1C[C@H]3[C@H](N(C)C)C(O)=C(C(N)=O)C(=O)[C@@]3(O)C(O)=C1C2=O [TGC, tigecycline]
MIC [2]: 0.5 µg/mL (≈ 0.854 µM)
MIC [3]: 4 µg/mL (≈ 6.83 µM)
MIC [4]: 1 µg/mL (≈ 1.71 µM)
MIC [6]: > 8 µg/mL
MIC [9]: 1 µg/mL (≈ 1.71 µM)
MIC [10]: 4 µg/mL (≈ 6.83 µM)
MIC [12]: 4 µg/mL (≈ 6.83 µM)
MIC [13]: 0.25 µg/mL (≈ 0.427 µM)
MIC [16]: 0.5 µg/mL (≈ 0.854 µM)
MIC ([17]; Ambler class B carbapenemase): 1 µg/mL (≈ 1.71 µM)
MIC [17, 33]: 0.5 µg/mL (≈ 0.854 µM)
MIC [18]: 4 µg/mL (≈ 6.83 µM)
MIC [19]: 0.5 µg/mL (≈ 0.854 µM)
MIC [20]: 1 µg/mL (≈ 1.71 µM)
MIC [21]: 0.125 µg/mL (≈ 0.213 µM)
MIC [22]: 0.125 µg/mL (≈ 0.213 µM)
MIC [23]: 2 µg/mL (≈ 3.41 µM)
MIC [24]: 0.25 µg/mL (≈ 0.427 µM)
MIC [25]: 1 µg/mL (≈ 1.71 µM)
MIC [26]: 2 µg/mL (≈ 3.41 µM)
MIC [27]: 2 µg/mL (≈ 3.41 µM)
MIC [28]: 1 µg/mL (≈ 1.71 µM)
MIC [29]: 2 µg/mL (≈ 3.41 µM)
reduction of lung burden relative to vehicle [30]: 3.14 log10 CFU/gram of lung tissue

colistin [CST]
MIC range ([31]; Unknown mechanism (1)): 32 µg/mL
MIC range ([31]; crrB G183V substitution (1)): >128 µg/mL
MIC range ([31]; crrB N141Y substitution (1)): >128 µg/mL
MIC range ([31]; crrB P151L substitution (1)): >128 µg/mL
MIC range ([31]; mcr-1 (1)): 32 µg/mL
MIC range ([31]; mgrB IS1R between +44 and +45 (2)): 128 µg/mL
MIC range ([31]; mgrB IS1R into promoter between −45 and −46 (3)): 32 to 128 µg/mL
MIC range ([31]; mgrB IS5 between +74 and +75 (4)): 16 to 128 µg/mL
MIC range ([31]; mgrB IS903B between +69 and +70 (2)): 64 µg/mL
MIC range ([31]; mgrB ISKpn14 into promoter between −28 and −29 (2)): 64 µg/mL
MIC range ([31]; mgrB M27K substitution (1)): 32 µg/mL
MIC range ([31]; mgrB N42Y and K43I substitutions (1)): 32 µg/mL
MIC range ([31]; mgrB W20R substitution (1)): 32 µg/mL
MIC range ([31]; mgrB W47R substitution (1)): 8 µg/mL
MIC range ([31]; mgrB premature termination (6)): 32 to 128 µg/mL
MIC range ([31]; phoQ R16C substitution (1)): >128 µg/mL
MIC range ([31]; pmrB L17Q substitution (1)): 32 µg/mL
MIC range ([31]; pmrB T157P substitution (6)): 8 to 32 µg/mL
MIC range ([32]; Unknown mechanism (2 isolates)): 16 µg/mL
MIC range ([32]; mcr-1 (21 isolates)): 4 to 16 µg/mL
MIC range ([32]; mcr-2 (1 isolate)): 8 µg/mL
MIC range ([32]; mcr-3 (1 isolate)): 16 µg/mL
